What was measured:
[1] = system: human umbilical cord mesenchymal stem cells; conditions: ethionamide 10 or 100 μM, 24 hours incubation; scratch observed after 14 hours; compared to control not treated
Procedure: To this end, human umbilical cord mesenchymal stem cells (5×10^4 cells) prepared according to the method described in Example 1 were dispensed into a 6-well plate, and simultaneously treated with ethionamide at 10 or 100 μM, followed by incubation for 24 hours. Subsequently, to inhibit cell proliferation, the cells were treated with mitomycin C at 10 μg/mL to allow a reaction for 2 hours, a scratch was made on the plate using a tip, followed by exchanging the medium with a fresh medium.

[2] = system: human umbilical cord mesenchymal stem cells; conditions: ethionamide 10 or 100 μM, 24 hours incubation; compared to control not treated
Procedure: To this end, the human umbilical cord mesenchymal stem cells (5×10^4 cells) prepared by the method described in Example 1 were dispensed into a Transwell plate (Costar, USA) with an 8.0 μm pore size, and treated with ethionamide at 10 or 100 μM, followed by incubation for 24 hours. Subsequently, the cells were fixed with 4% paraformaldehyde and stained with hematoxylin, the inner side of the Transwell was wiped with a cotton tip, and then the number of cells present on the bottom surface of the Transwell was measured using a microscope.

CXCR4 = conditions: treated with ethionamide for 72 hours; compared with stem cells not treated (Control)
Procedure: To this end, the human mesenchymal stem cells prepared according to the method described in Example 1 were treated with ethionamide for 72 hours, and then lysed with TRIzol (Ambion, USA). Subsequently, following the addition of chloroform (Sigma Aldrich, USA) and centrifugation, only a supernatant was transferred to a new tube, treated with isopropanol (Amresco, USA), and centrifuged to precipitate RNA. Afterward, the precipitated RNA was treated with 75% ethanol (Merck Millipore, USA) for washing, and the completely dried RNA was dissolved in DEPC water (Biosesang, Korea). 5 μg of RNA extracted from the human mesenchymal stem cells treated or not treated with ethionamide by the above-described method was used for cDNA synthesis, and here, for the cDNA synthesis, a cDNA synthesis kit (Invitrogen, USA) was used. Afterward, 10 pM of a primer (Bioneer, Korea) specific for CXCR4, which is a gene related to stem cell migration, and a SYBR green master mix (Applied Biosystems, USA) were added to the synthesized cDNA, and cDNA was amplified using a real time-PCR device (Applied Biosystems, USA), followed by assessment of the amplified result to measure an initial amount of cDNA.

SMILES: CCc1cc(C(N)=S)ccn1 [ethionamide, 2-ethylpyridine-4-carbothioamide]
- migration ability of human mesenchymal stem cells (number of migrating stem cells) [1]: significantly increased
- invasion ability of human mesenchymal stem cells (number of cells on bottom surface of Transwell) [2]: significantly increased
- expression level of the CXCR4 gene (CXCR4): at least 4 fold

— US11913020B2, “Method for improving stem cell migration using ethionamide” (Samsung Life Public Welfare Foundation, priority 2017, dated 2024)
